Laboratory results published in PMC10222209 (Pharmaceuticals, 2023).
Read-outs that look alike come from different tables or passages of the source.

What was measured:
22RV1 cells = assay: Antiproliferative assay (resazurin, 72 h) in 22RV1 cells; assay type: cell-based; details: for inhibition at 1 µM / IC50: Homo sapiens; for antiproliferative activity, in words: enzalutamide-resistant cell lines LNCaP95 and 22RV1, SAR statements
Experimental: (§1) 22Rv1 cells were obtained from ATCC. LNCaP95 cells were provided by Dr. Yan Dong’s laboratory (Tulane University School of Medicine). LNCaP95 cells were maintained in an RPMI1640 medium with charcoal-stripped serum (CSS). 22Rv1 cells were maintained in an RPMI1640 medium with 10% FBS. Cells were seeded in 96-well plates (5 × 10^3 cells/well) containing a 50 μL growth medium for 24 h. After medium removal, a 100 μL fresh medium containing individual compounds at different concentrations was added to each well and incubated at 37 °C for 72 h. Then, 20 μL of resazurin was added for 2 h before recording fluorescence at 560 nm (excitation) and 590 nm (emission) using a Victor microtiter plate fluorometer (Perkin-Elmer, Waltham, MA, USA).

LNCaP95 cells = assay: Antiproliferative assay (resazurin, 72 h) in LNCaP95 cells; assay type: cell-based
Experimental: as §1

[1] = 22RV1, 1.0 μM, read-out: Inhibitory Rate 22RV1 @1.0 μM
[2] = antiproliferation, 22RV1, 72 h, mean of three independent experiments, read-out: IC50 (μM) 22RV1
[3] = observed, −log IC50, 22RV1 antiproliferation, read-out: Obs pIC50 (converted)
[4] = LNCaP-95, antiproliferation, LNCaP95, 72 h, mean of three independent experiments, read-out: IC50 (μM) LNCaP95

Row | Structure (SMILES) | IC50 (22RV1 cells; [2]) | IC50 (22RV1 cells; [3]) | IC50 (LNCaP95 cells; [4]) | inhibition at 1 µM (22RV1 cells; [1]) | also measured
1 | O=C(Nc1ccc([N+](=O)[O-])cc1F)c1ccc(Cl)cc1O [A1] | 0.467 ± 0.131 µM | 0.467 µM | 1.19 ± 0.53 µM | 54.3% | 
2 | Cc1cc([N+](=O)[O-])ccc1NC(=O)c1ccc(Cl)cc1O [A2] | 0.676 ± 0.245 µM | 0.676 µM | 0.62 ± 0.311 µM | 47.1% | 
3 | COc1cc([N+](=O)[O-])ccc1NC(=O)c1ccc(Cl)cc1O [A3] | 0.714 ± 0.303 µM | 0.714 µM | 2.48 ± 0.702 µM | 50% | 
4 | O=C(Nc1ccc([N+](=O)[O-])c(Cl)c1)c1ccc(Cl)cc1O [A4] | 0.713 ± 0.178 µM | 0.713 µM | 3.43 ± 0.49 µM | 47.5% | 
5 | O=C(Nc1ccc([N+](=O)[O-])c(F)c1)c1ccc(Cl)cc1O [A5] | 0.924 ± 0.414 µM | 0.925 µM | 0.937 ± 0.351 µM | 44.2% | 
6 | O=C(Nc1ccc([N+](=O)[O-])c(C(F)(F)F)c1)c1ccc(Cl)cc1O [A6] | 0.424 ± 0.12 µM | 0.424 µM | 0.214 ± 0.067 µM | 54.4% | antiproliferative activity, in words (22RV1 cells): equivalent or improved anti-proliferation potency
7 | Cc1cc(NC(=O)c2ccc(Cl)cc2O)ccc1[N+](=O)[O-] [A7] | 0.976 ± 0.205 µM | 0.975 µM | 0.789 ± 0.436 µM | 42.5% | 
8 | COc1cc(NC(=O)c2ccc(Cl)cc2O)ccc1[N+](=O)[O-] [A8] | 2.11 ± 0.52 µM | 2.11 µM | 0.615 ± 0.138 µM | 35.9% | 
9 | O=C(Nc1ccc([N+](=O)[O-])cc1)c1cc(Cl)ccc1O [A9] | 0.581 ± 0.289 µM | 0.581 µM | 0.812 ± 0.374 µM | 44.9% | 
10 | O=C(Nc1ccc([N+](=O)[O-])cc1F)c1cc(Cl)ccc1O [A10] | 0.271 ± 0.125 µM | 0.271 µM | 0.373 ± 0.069 µM | 56% | 
11 | O=C(Nc1ccc([N+](=O)[O-])cc1C(F)(F)F)c1cc(Cl)ccc1O [A11] |  |  |  | -8.3% | 
12 | Cc1cc([N+](=O)[O-])ccc1NC(=O)c1cc(Cl)ccc1O [A12] | 0.248 ± 0.063 µM | 0.248 µM | 0.493 ± 0.105 µM | 58% | 
13 | COc1cc([N+](=O)[O-])ccc1NC(=O)c1cc(Cl)ccc1O [A13] | 0.158 ± 0.044 µM | 0.158 µM | 0.444 ± 0.119 µM | 57.3% | 
14 | O=C(Nc1ccc([N+](=O)[O-])c(Cl)c1)c1cc(Cl)ccc1O [A14] |  |  |  |  | IC50 (22RV1 cells; 22Rv1, 72 h, read-out: IC50 (μM) 22RV1): 0.386 ± 0.171 µM; inhibition at 1 µM (22RV1 cells; 22Rv1, read-out: Inhibitory Rate 22RV1 @1.0 μM): 51.3%; IC50 (22RV1 cells; 22Rv1, read-out: Obs pIC50 (converted)): 0.386 µM; IC50 (LNCaP95 cells; LNCaP-95, 72 h, read-out: IC50 (μM) LNCaP95): 1.67 ± 0.25 µM
15 | O=C(Nc1ccc([N+](=O)[O-])c(F)c1)c1cc(Cl)ccc1O [A15] | 0.28 ± 0.092 µM | 0.28 µM | 0.755 ± 0.221 µM | 55.4% | 
16 | O=C(Nc1ccc([N+](=O)[O-])c(C(F)(F)F)c1)c1cc(Cl)ccc1O [A16] | 0.556 ± 0.112 µM | 0.556 µM | 0.693 ± 0.314 µM | 47.5% | 
17 | Cc1cc(NC(=O)c2cc(Cl)ccc2O)ccc1[N+](=O)[O-] [A17] | 0.324 ± 0.058 µM | 0.324 µM | 0.867 ± 0.298 µM | 50.1% | 
18 | COc1cc(NC(=O)c2cc(Cl)ccc2O)ccc1[N+](=O)[O-] [A18] | 0.483 ± 0.145 µM | 0.483 µM | 2.11 ± 0.46 µM | 55.4% | 
19 | O=C(Nc1ccc([N+](=O)[O-])cc1Cl)c1cc(Br)ccc1O [A19] |  |  |  | 13.4% | antiproliferative activity, in words (22RV1 cells): dramatic loss of activity
20 | COc1cc([N+](=O)[O-])ccc1NC(=O)c1cc(Br)ccc1O [A20] | 0.242 ± 0.044 µM | 0.242 µM | 0.304 ± 0.053 µM | 60.2% | antiproliferative activity, in words (22RV1 cells): equivalent or improved anti-proliferation potency
21 | Nc1ccc(NC(=O)c2cc(Cl)ccc2O)c(Cl)c1 [B2] |  |  |  | 19.6% | antiproliferative activity, in words (22RV1 cells): complete loss of activity
22 | O=C(Nc1ccc([N+](=O)[O-])cc1Cl)c1cccc(Cl)c1 [C2] |  |  |  | 19% | antiproliferative activity, in words (22RV1 cells): significant loss of activity
23 | O=C(Nc1ccc([N+](=O)[O-])c(C(F)(F)F)c1)c1cccc(Cl)c1 [C3] | 0.557 ± 0.127 µM | 0.557 µM | 0.33 ± 0.081 µM | 43.7% | antiproliferative activity, in words (22RV1 cells): retained
24 | O=C(Nc1ccc([N+](=O)[O-])cc1Cl)c1cccc(Br)c1 [C4] |  |  |  | 31.2% | antiproliferative activity, in words (22RV1 cells): significant loss of activity
25 | CNC(=O)c1ccc(N2C(=S)N(c3ccc(C#N)c(C(F)(F)F)c3)C(=O)C2(C)C)cc1F [Enzalutamide, reference compound] |  |  |  | 24.1% | 

Second part, led by results:

Row | IC50 (22RV1 cells; [2]) | IC50 (22RV1 cells; [3]) | IC50 (LNCaP95 cells; [4]) | Structure (SMILES) | inhibition at 1 µM (22RV1 cells; [1]) | also measured
26 | 0.307 ± 0.059 µM | 0.307 µM | 0.213 ± 0.042 µM | O=C(Nc1ccc(C(F)(F)F)c(C(F)(F)F)c1)c1cc(Br)ccc1O [B4] | 53.1% | 
27 | 0.375 ± 0.063 µM | 0.375 µM | 0.384 ± 0.088 µM | O=C(Nc1ccc(C(F)(F)F)cc1Cl)c1cc(F)ccc1O [B5] | 59.2% | 
28 | 0.196 ± 0.032 µM | 0.196 µM | 0.185 ± 0.041 µM | O=C(Nc1ccc(C(F)(F)F)cc1F)c1cc(F)ccc1O [B6] | 62.5% | antiproliferative activity, in words (22RV1 cells): equivalent or improved anti-proliferation potency
29 | 7.92 ± 2.56 µM | 7.93 µM | 4.38 ± 1.33 µM | N#Cc1cc(C(F)(F)F)ccc1NC(=O)c1cc(F)ccc1O [B7] | 42.3% | 
30 | 0.24 ± 0.048 µM | 0.24 µM | 0.396 ± 0.065 µM | N#Cc1cc(NC(=O)c2cc(F)ccc2O)ccc1C(F)(F)F [B8] | 60.4% | 
31 | 0.547 ± 0.153 µM | 0.547 µM | 0.627 ± 0.225 µM | O=C(Nc1ccc(C(F)(F)F)nc1)c1cc(F)ccc1O [B10] | 42.3% | 
32 | 0.581 ± 0.205 µM | 0.581 µM | 0.392 ± 0.136 µM | O=C(Nc1ccnc(C(F)(F)F)c1)c1cc(F)ccc1O [B11] | 47.7% | 
33 | 3.23 ± 1.84 µM | 3.23 µM | > 10 µM | N#Cc1ccc(NC(=O)c2cc(F)ccc2O)c(Cl)c1 [B12] | 44.3% | 
34 | 0.184 ± 0.061 µM | 0.184 µM | 0.231 ± 0.072 µM | N#Cc1ccc(NC(=O)c2cc(F)ccc2O)c(F)c1 [B13] | 65.6% | 
35 | 1.04 ± 0.26 µM | 1.04 µM | 2.35 ± 0.53 µM | N#Cc1ccc(O)c(C(=O)Nc2ccc(C(F)(F)F)c(C(F)(F)F)c2)c1 [B15] | 44.8% | 
36 | 0.111 ± 0.023 µM | 0.111 µM | 0.113 ± 0.044 µM | O=C(Nc1ccc(C(F)(F)F)c(C(F)(F)F)c1)c1cc(C(F)(F)F)ccc1O [B16] | 64.6% | IC50 (22RV1 cells; 22Rv1, antiproliferation, approximate value, read-out: IC50 in 22RV1 (text)): ~0.1 µM; antiproliferative activity, in words (22RV1 cells): equivalent or improved anti-proliferation potency; IC50 (LNCaP95 cells; LNCaP-95, antiproliferation, approximate value, read-out: IC50 in LNCaP95 (text)): ~0.1 µM
37 | 0.32 ± 0.115 µM | 0.32 µM | 0.299 µM | O=C(Nc1ccc(C(F)(F)F)c(C(F)(F)F)c1)c1cccc(Cl)c1 [C1] | 53.1% | antiproliferative activity, in words (22RV1 cells): retained
